Laboratory results published in EPA's CvTdb concentration-time database.

Experiments:
Rat [1] = test: concentration in plasma after dosing; settings: 0.5 h; dosed: Gemfibrozil; 4.29 mg/kg; oral; Male; Sprague-Dawley
Rat [2] = test: concentration in plasma after dosing; settings: 6 h; dosed: Gemfibrozil; 4.29 mg/kg; oral; Male; Sprague-Dawley
Rat [3] = test: concentration in plasma after dosing; settings: 3 h; dosed: 678-39-7; 12 mg/kg; iv; Male; F344
Rat [4] = test: concentration in plasma after dosing; settings: 192 h; dosed: 678-39-7; 40 mg/kg; iv; Male; F344
Rat [5] = test: concentration in plasma after dosing; settings: 192 h; dosed: 678-39-7; 40 mg/kg; iv; Male; F344; remark: listed apart in the source
Rat [6] = test: concentration in liver after dosing; settings: 1 h; dosed: Fluorotelomer alcohol 8+2; 24 mg/kg; oral; Male; Harlan Sprague Dawley
rat [7] = test: concentration in expired air after dosing; settings: dosed: trichloroethylene, male
Rat [8] = test: concentration in liver after dosing; settings: 864 h; dosed: Perfluorooctane Sulfonate; 20 mg/kg; oral; Female; F344
Rat [9] = test: concentration in brain after dosing; settings: 0.5 h; dosed: Perfluorohexanoic Acid; 80 mg/kg; oral; Female; Harlan Sprague Dawley
Rat [10] = test: concentration in plasma after dosing; settings: 1 h; dosed: Perfluorohexanoic Acid; 80 mg/kg; oral; Male; Harlan Sprague Dawley
Rat [11] = test: concentration in kidney after dosing; settings: 1 h; dosed: Perfluorohexanoic Acid; 80 mg/kg; oral; Male; Harlan Sprague Dawley
Rat [12] = test: concentration in plasma after dosing; settings: dosed: Perfluorohexanoic Acid, 40 mg/kg, iv, Male, F344
Rat [13] = test: concentration in plasma after dosing; settings: 1.5 h; dosed: Perfluorohexanoic Acid; 40 mg/kg; iv; Male; F344

Cc1ccc(C)c(OCCCC(C)(C)C(=O)O)c1 [Gemfibrozil]
Settings	concentration in plasma [ng/mL]
Rat [1]	570
Rat [2]	388

O=C(O)CCC(F)(F)C(F)(F)C(F)(F)C(F)(F)C(F)(F)C(F)(F)C(F)(F)F [Fluorotelomer acid 7+3]
Settings	concentration in liver [ng/g]	concentration in plasma [ng/mL]
Rat [3]	–	735
Rat [4]	–	48.1
Rat [5]	–	49.7
Rat [6]	588	–

ClC=C(Cl)Cl [trichloroethylene]
concentration in expired air [ng/mL], rat [7], inhalation, duration: 2 hr, Sprague Dawley
Settings	50 ppm	500 ppm
0.1579 h	–	1570
0.1611 h	155	–
0.242 h	178	–
0.2441 h	–	1630
0.3273 h	–	1620
0.3301 h	176	–
0.4933 h	177	1730
0.6596 h	–	1730
0.6597 h	179	–
0.8258 h	–	1800
0.8264 h	173	–
0.9952 h	–	1830
0.9958 h	179	–
1.165 h	188	1850
1.328 h	–	1740
1.332 h	184	–
1.497 h	–	1840
1.498 h	193	–
1.661 h	185	–
1.664 h	–	1820
1.825 h	183	–
1.83 h	–	1910
1.991 h	178	–
2 h	–	1790
2.008 h	61.8	–
2.016 h	–	704
2.04 h	35.4	–
2.049 h	–	532
2.071 h	30.5	–
2.081 h	–	458
2.103 h	8.92	–
2.113 h	–	399
2.157 h	17.3	–
2.161 h	–	379
2.238 h	13.8	–
2.248 h	–	359
2.493 h	10.2	–
2.501 h	–	221
2.741 h	7.87	–
2.754 h	–	152
2.992 h	7.93	–
3 h	–	97.3
3.244 h	5.59	–
3.25 h	–	82
3.495 h	2.05	–
3.502 h	–	52.1
3.746 h	0.904	22.1
3.994 h	2.17	–
3.998 h	–	26.5
4.494 h	1.08	–
4.501 h	–	25.5
4.996 h	1.2	–
5 h	–	14.7
40 s	129	–
42 s	–	1270
151 s	148	–
167 s	–	1440
285 s	161	–
293 s	–	1500

rat [7], 6 mg/kg, oral, Wistar
Settings	concentration in expired air [ppm]
0.1223 h	4.6
0.1642 h	3.99
0.219 h	3.8
0.2464 h	2.7
0.4982 h	1.12
0.7463 h	0.349
1 h	0.198
1.245 h	0.161
1.496 h	0.113
1.748 h	0.0858
2 h	0.0858
99 s	0.987
289 s	3.59

O=S(=O)([O-])C(F)(F)C(F)(F)C(F)(F)C(F)(F)C(F)(F)C(F)(F)C(F)(F)C(F)(F)F [Perfluorooctane Sulfonate]
Settings	concentration in liver [ng/g]
Rat [8]	71400

O=C(O)C(F)(F)C(F)(F)C(F)(F)C(F)(F)C(F)(F)F [Perfluorohexanoic Acid]
Settings	concentration in brain [ng/g]	concentration in kidney [ng/g]	concentration in plasma [ng/mL]
Rat [9]	1270	–	–
Rat [10]	–	–	152000
Rat [11]	–	79900	–
Rat [13]	–	–	8490

Rat [12]
Settings	concentration in plasma [ng/mL]
3 h	1450
5 min	35700
